In this series the test system is CCRIS mutagenicity, Ames/micronucleus/aberration tests. As to the kind of experiment: CCRIS mutagenicity studies.
Setting [1] is: Test System: AMES SALMONELLA TYPHIMURIUM, Strain/Indicator: TA98, Metabolic Activation: NONE, Method: PREINCUBATION
The mark [2] stands for this setting: Test System: AMES SALMONELLA TYPHIMURIUM, Strain/Indicator: TA100, Metabolic Activation: NONE, Method: PREINCUBATION
The mark [3] stands for this setting: Test System: AMES SALMONELLA TYPHIMURIUM, Strain/Indicator: TA1535, Metabolic Activation: NONE, Method: PREINCUBATION
[4] abbreviates: Test System: AMES SALMONELLA TYPHIMURIUM, Strain/Indicator: TA98, Metabolic Activation: NONE, Method: STANDARD PLATE.
Setting [5] is: Test System: AMES SALMONELLA TYPHIMURIUM, Strain/Indicator: TA102, Metabolic Activation: NONE, Method: PREINCUBATION
The mark [6] stands for this setting: Test System: AMES SALMONELLA TYPHIMURIUM, Strain/Indicator: TA100, Metabolic Activation: NONE, Method: STANDARD PLATE.

SMILES strings stand for the structures. The source made the active and inactive calls. The rule behind the calls is not given here.

In the case of `NN=C(N)N`, the mutagenic call under setting [1] is “inactive; negative”; the mutagenic call (Test System: AMES SALMONELLA TYPHIMURIUM, Strain/Indicator: TA98, Metabolic Activation: RAT LIVER S-9, PHENOBARBITAL AND BETA-NAPHTHOFLAVONE, Method: PREINCUBATION) was “inactive; negative”; the mutagenic call under setting [2] is “inactive; negative”; the mutagenic call (Test System: AMES SALMONELLA TYPHIMURIUM, Strain/Indicator: TA100, Metabolic Activation: RAT LIVER S-9, PHENOBARBITAL AND BETA-NAPHTHOFLAVONE, Method: PREINCUBATION) was “inactive; negative”; the mutagenic call under setting [3] was “inactive; negative”; the mutagenic call (Test System: AMES SALMONELLA TYPHIMURIUM, Strain/Indicator: TA1535, Metabolic Activation: RAT LIVER S-9, PHENOBARBITAL AND BETA-NAPHTHOFLAVONE, Method: PREINCUBATION) is “inactive; negative”. The mutagenic call is “inactive; negative” (Test System: AMES SALMONELLA TYPHIMURIUM, Strain/Indicator: TA1537, Metabolic Activation: NONE, Method: PREINCUBATION); “inactive; negative” (Test System: AMES SALMONELLA TYPHIMURIUM, Strain/Indicator: TA1537, Metabolic Activation: RAT LIVER S-9, PHENOBARBITAL AND BETA-NAPHTHOFLAVONE, Method: PREINCUBATION); “inactive; negative” (Test System: E.COLI, Strain/Indicator: WP2UVRA/PKM101, Metabolic Activation: NONE, Method: PREINCUBATION); “inactive; negative” (Test System: E.COLI, Strain/Indicator: WP2UVRA/PKM101, Metabolic Activation: RAT LIVER S-9, PHENOBARBITAL AND BETA-NAPHTHOFLAVONE, Method: PREINCUBATION).
As for `COC(=O)CN(CC(=O)OC)C1C[C@H]1N(CC(=O)OC)CC(=O)OC` (some centres undefined), where the note is “Test System: CHINESE HAMSTER V-79, Strain/Indicator: V-79/OUABAIN, Metabolic Activation: NONE, Method: STANDARD PLATE”, the mutagenic call is “active; positive”.
For `CC(=O)[O-].CC(=O)[O-].[Hg+2]`, the mutagenic call is, setting by setting: (End Point: IN VITRO MICRONUCLEUS, Test System: CHL/IU CELLS, Metabolic Activation: NONE) “active; positive”; (Test System: CHINESE HAMSTER OVARY, Strain/Indicator: AS52/6-THIOGUANINE, Metabolic Activation: NONE) “active; positive”; (Test System: CHINESE HAMSTER OVARY, Strain/Indicator: CHO-AS52/6-THIOGUANINE, Metabolic Activation: NONE) “active; positive”.
With `c1ccc2c(c1)ccc1c2ccc2cccnc21`, the mutagenic call runs as follows: under setting [4], “inactive; negative”; (Test System: AMES SALMONELLA TYPHIMURIUM, Strain/Indicator: TA98, Metabolic Activation: RAT, LIVER, S-9, AROCLOR 1254, Method: STANDARD PLATE) “active; positive”; (Test System: AMES SALMONELLA TYPHIMURIUM, Strain/Indicator: TA100, Metabolic Activation: RAT, LIVER, S-9, AROCLOR 1254, Method: STANDARD PLATE) “active; positive”.
In the case of `CC(=O)N=C1C=CC(=O)C=C1`, the mutagenic call is, setting by setting: under setting [1], “inactive; negative”; under setting [5], “inactive; negative”; (Test System: UDS MOUSE HEPATOCYTES, Strain/Indicator: THY INCORP (NON-S-PHASE), Metabolic Activation: NONE, Method: LIQUID SCINTILLATION COUNTING) “inactive; negative”.
In the case of `c1ccc2c(c1)-c1cc3ccccc3cc1[C@@H]1N[C@H]21`, the mutagenic call is “active; positive” under setting [1], “active; positive” under setting [4] and “active; positive” under setting [6].
`CCCSP(=O)(OCC)Oc1ccc(Br)cc1Cl` (centres undefined): the mutagenic call is “active; positive (structural changes)” (End Point: In vitro chromosomal aberrations, Test System: Human peripheral lymphocytes, Metabolic Activation: None); “active; positive (structural changes and ploidy)” (End Point: In vivo chromosomal aberrations, Test System: Bone marrow cells, Species: Mouse, Strain/Sex: Swiss/Male, Route: Oral).
Consider `NCC(=O)CCC(=O)O`, for which the mutagenic call reads like this: under setting [1], “inactive; negative”; under setting [2], “inactive; negative”; under setting [5], “active; positive”; (Test System: AMES SALMONELLA TYPHIMURIUM, Strain/Indicator: TA104, Metabolic Activation: NONE, Method: PREINCUBATION) “active; positive”; under setting [3], “inactive; negative”.
Take `C/C=C(/C(=C/C)c1ccc(O)cc1)c1ccc(O)cc1`: the mutagenic call is “active; positive (ploidy changes)” (End Point: IN VITRO CHROMOSOMAL ABERRATIONS, Test System: CHINESE HAMSTER CELL DON (22;XY), Metabolic Activation: NONE); “inactive; negative” under setting [4]; “inactive; negative” (Test System: AMES SALMONELLA TYPHIMURIUM, Strain/Indicator: TA98, Metabolic Activation: RAT, LIVER, S-9, Method: STANDARD PLATE); “inactive; negative; toxicity at 100 ug/plate” under setting [6]; “inactive; negative; toxicity at 100 ug/plate” (Test System: AMES SALMONELLA TYPHIMURIUM, Strain/Indicator: TA100, Metabolic Activation: RAT, LIVER, S-9, Method: STANDARD PLATE); “inactive; negative; toxicity at 50 ug/plate” (Test System: AMES SALMONELLA TYPHIMURIUM, Strain/Indicator: TA1535, Metabolic Activation: NONE, Method: STANDARD PLATE). The mutagenic call (Test System: AMES SALMONELLA TYPHIMURIUM, Strain/Indicator: TA1535, Metabolic Activation: RAT, LIVER, S-9, Method: STANDARD PLATE) is “inactive; negative; toxicity at 100 ug/plate”; the mutagenic call (Test System: AMES SALMONELLA TYPHIMURIUM, Strain/Indicator: TA1537, Metabolic Activation: NONE, Method: STANDARD PLATE) is “inactive; negative”; the mutagenic call (Test System: AMES SALMONELLA TYPHIMURIUM, Strain/Indicator: TA1537, Metabolic Activation: RAT, LIVER, S-9, Method: STANDARD PLATE) was “inactive; negative”; the mutagenic call (Test System: AMES SALMONELLA TYPHIMURIUM, Strain/Indicator: TA1538, Metabolic Activation: NONE, Method: STANDARD PLATE) was “inactive; negative”; the mutagenic call (Test System: AMES SALMONELLA TYPHIMURIUM, Strain/Indicator: TA1538, Metabolic Activation: RAT, LIVER, S-9, Method: STANDARD PLATE) is “inactive; negative; toxicity at 100 ug/plate”.
With `Cc1ccc(N)cc1[N+](=O)[O-]`, the mutagenic call was “inactive; negative” (Test System: AMES SALMONELLA TYPHIMURIUM, Strain/Indicator: TA98, Metabolic Activation: NONE, Method: SUSPENSION/PLATE); “active; positive” (Test System: AMES SALMONELLA TYPHIMURIUM, Strain/Indicator: TA98, Metabolic Activation: RAT, LIVER, S-9, KANECHLOR 500, Method: PREINCUBATION); “inactive; negative” (Test System: AMES SALMONELLA TYPHIMURIUM, Strain/Indicator: TA98, Metabolic Activation: RAT, LIVER, S-9, PCB, Method: PREINCUBATION); “inactive; negative” (Test System: AMES SALMONELLA TYPHIMURIUM, Strain/Indicator: TA98, Metabolic Activation: RAT, LIVER, S-9, PHENOBARBITAL AND 5,6-BENZOFLAVONE, Method: SUSPENSION/PLATE); “active; positive” under setting [2]; “inactive; negative” (Test System: AMES SALMONELLA TYPHIMURIUM, Strain/Indicator: TA100, Metabolic Activation: NONE, Method: SUSPENSION/PLATE). In addition, the mutagenic call was “active; positive” (Test System: AMES SALMONELLA TYPHIMURIUM, Strain/Indicator: TA100, Metabolic Activation: RAT, LIVER, S-9, KANECHLOR 500, Method: PREINCUBATION) and “inactive; negative” (Test System: AMES SALMONELLA TYPHIMURIUM, Strain/Indicator: TA100, Metabolic Activation: RAT, LIVER, S-9, PHENOBARBITAL AND 5,6-BENZOFLAVONE, Method: SUSPENSION/PLATE).

These data come from PubChem BioAssay AID1259407 (Chemical Carcinogenesis Research Information System (CCRIS), 2018).
